Experimental data as given in patent US20230265151A1, “GIP/GLP1 CO-AGONIST COMPOUNDS” (priority 2020, published 2023).
Where two headings read alike, the source gives them in different places.

Experiments:
Format in all cases: cell-based
hGIPR = target: T1, hGIPR (Homo sapiens, UniProt P48546); test: Functional cAMP formation (HTRF) in HEK-293 clonal cells expressing hGIPR, 0.1% bovine casein, without or with 1.0% human serum albumin; details: 37° C.; for Emax: HEK293, cAMP, percent of maximal response to GIP(1-42)NH2, read-out: hGIPR Emax, % ± SEM; for EC50: cAMP, read-out: hGIPR EC50, nM (SEM, n)
T1 construct: expressed in transfected cells
T1 sequence (P48546 22-466): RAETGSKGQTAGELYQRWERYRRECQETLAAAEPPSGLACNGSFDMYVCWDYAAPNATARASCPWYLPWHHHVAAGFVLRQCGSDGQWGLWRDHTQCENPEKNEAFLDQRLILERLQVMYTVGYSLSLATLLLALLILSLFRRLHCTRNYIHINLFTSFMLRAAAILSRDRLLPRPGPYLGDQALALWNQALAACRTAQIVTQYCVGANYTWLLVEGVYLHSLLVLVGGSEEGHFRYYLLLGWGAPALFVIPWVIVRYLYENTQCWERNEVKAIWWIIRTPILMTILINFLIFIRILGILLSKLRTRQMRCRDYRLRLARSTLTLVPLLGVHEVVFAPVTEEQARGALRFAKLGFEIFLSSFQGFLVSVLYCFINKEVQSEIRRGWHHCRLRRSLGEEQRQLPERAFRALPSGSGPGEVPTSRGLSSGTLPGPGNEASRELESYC
Summary of the method: (§1)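 Readings of the HTRF 665/620 nm ratio, which falls as cAMP rises, were converted to nM cAMP using a standard curve after 30 min peptide exposure at 37° C.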

hGCGR = target: T2, hGCGR (Homo sapiens, UniProt P47871); test: Functional cAMP formation (HTRF) in HEK-293 clonal cells expressing hGCGR, 0.1% bovine casein, without or with 1.0% human serum albumin; details: cAMP, 37° C., read-out: hGCGR EC50, nM (SEM, n)
T2 construct: expressed in transfected cells
Summary of the method: as §1

hGLP-1R = hGLP-1R (Homo sapiens, UniProt P43220); test: Functional cAMP formation (HTRF) in HEK-293 clonal cells expressing hGLP-1R, 0.1% bovine casein, without or with 1.0% human serum albumin; design: expressed in transfected cells; details: 37° C.; for Emax: HEK293, cAMP, percent of maximal response to GLP-1(7-36)NH2, read-out: hGLP-1R Emax, % ± SEM; for EC50: cAMP, read-out: hGLP-1R EC50, nM (SEM, n)
Summary of the method: as §1

[1] = 0.1% bovine casein and 1.0% human serum albumin
[2] = 0.1% bovine casein, arithmetic mean
[3] = 0.1% bovine casein (no human serum albumin), geometric mean
[4] = 0.1% bovine casein and 1.0% human serum albumin, geometric mean (SEM, n)

T2 sequence (P47871 26-477): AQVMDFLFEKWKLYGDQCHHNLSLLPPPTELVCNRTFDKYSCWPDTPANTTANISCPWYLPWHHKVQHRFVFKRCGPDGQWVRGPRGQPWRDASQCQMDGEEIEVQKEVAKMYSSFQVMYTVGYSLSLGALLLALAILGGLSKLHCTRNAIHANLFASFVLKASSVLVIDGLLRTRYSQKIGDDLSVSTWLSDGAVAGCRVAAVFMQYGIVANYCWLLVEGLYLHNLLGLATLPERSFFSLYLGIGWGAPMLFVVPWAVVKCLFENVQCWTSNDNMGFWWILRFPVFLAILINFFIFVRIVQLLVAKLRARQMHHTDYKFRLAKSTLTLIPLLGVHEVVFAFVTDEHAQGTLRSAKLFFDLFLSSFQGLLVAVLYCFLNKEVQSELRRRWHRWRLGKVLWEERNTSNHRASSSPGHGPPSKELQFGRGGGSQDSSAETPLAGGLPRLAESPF
hGLP-1R, sequence (P43220 24-463): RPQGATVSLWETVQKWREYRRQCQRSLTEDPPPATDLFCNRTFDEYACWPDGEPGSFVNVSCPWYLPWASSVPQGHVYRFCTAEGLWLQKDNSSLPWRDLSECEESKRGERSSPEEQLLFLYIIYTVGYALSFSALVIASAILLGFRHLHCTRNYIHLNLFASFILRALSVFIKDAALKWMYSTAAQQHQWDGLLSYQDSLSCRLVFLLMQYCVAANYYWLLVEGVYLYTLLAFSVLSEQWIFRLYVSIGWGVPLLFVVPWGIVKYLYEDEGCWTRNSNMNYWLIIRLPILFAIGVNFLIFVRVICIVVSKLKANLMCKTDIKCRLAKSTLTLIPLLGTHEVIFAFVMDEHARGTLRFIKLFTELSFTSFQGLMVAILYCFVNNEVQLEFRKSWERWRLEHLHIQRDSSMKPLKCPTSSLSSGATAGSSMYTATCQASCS

| SMILES | Emax (hGIPR; [1]) | Emax (hGIPR; [2]) | EC50 (hGIPR; [3]) | EC50 (hGCGR; [3]) | EC50 (hGCGR; [4]) | Emax (hGLP-1R; [2]) | EC50 (hGLP-1R; [3]) | Emax (hGLP-1R; [1]) | EC50 (hGIPR; [4]) | EC50 (hGLP-1R; [4]) |
| --- | --- | --- | --- | --- | --- | --- | --- | --- | --- | --- |
| CC[C@H](C)[C@H](NC(=O)[C@H](CC(C)C)NC(=O)[C@](C)(Cc1ccc(O)cc1)NC(=O)[C@@H](CCC(=O)O)NC(=O)[C@@H](NC(=O)[C@H](Cc1ccccc1)NC(=O)[C@H](CCCCNC(=O)COCCOCCNC(=O)COCCOCCNC(=O)CCCCCCCCCCCCC(=O)O)NC(=O)C(C)(C)NC(=O)[C@H](CCC(N)=O)NC(=O)[C@H](C)NC(=O)[C@H](CCCCNC(=O)COCCOCCNC(=O)COCCOCCNC(=O)CCCCCCCCCCCCC(=O)O)NC(=O)[C@H](CCCN)NC(=O)[C@H](CC(=O)O)NC(=O)[C@H](CC(C)C)NC(=O)[C@](C)(CC(C)C)NC(=O)[C@@H](NC(=O)C(C)(C)NC(=O)[C@H](Cc1ccncc1)NC(=O)[C@H](CC(=O)O)NC(=O)[C@H](CO)NC(=O)[C@@H](NC(=O)[C@](C)(Cc1ccccc1F)NC(=O)[C@@H](NC(=O)CNC(=O)[C@H](CCC(=O)O)NC(=O)C(C)(C)NC(=O)[C@@H](N)Cc1ccc(O)cc1)[C@@H](C)O)[C@@H](C)O)[C@@H](C)CC)[C@@H](C)CC)C(=O)N[C@@H](CCC(=O)O)C(=O)NCC(=O)NCC(=O)N1CCC[C@H]1C(=O)N[C@@H](CO)C(=O)N[C@@H](CO)C(=O)NCC(=O)N[C@@H](C)C(=O)N1CCC[C@H]1C(=O)N1CCC[C@H]1C(=O)N1CCC[C@H]1C(=O)N[C@@H](CO)C(N)=O [Example 384] | 83.5% | 94.5% | 0.0124 nM | > 9950 nM | > 9950 nM | 98.2% | 0.308 nM | – | – | – |
| CC[C@H](C)[C@H](NC(=O)[C@H](CC(C)C)NC(=O)[C@](C)(Cc1ccc(O)cc1)NC(=O)[C@@H](CCC(=O)O)NC(=O)[C@@H](NC(=O)[C@H](Cc1ccccc1)NC(=O)[C@H](CCCCNC(=O)COCCOCCNC(=O)COCCOCCNC(=O)CCCCCCCCCCCCC(=O)O)NC(=O)C(C)(C)NC(=O)[C@H](CCC(N)=O)NC(=O)[C@H](C)NC(=O)[C@H](CCCCNC(=O)COCCOCCNC(=O)COCCOCCNC(=O)CCCCCCCCCCCCC(=O)O)NC(=O)[C@H](CCCN)NC(=O)[C@H](CC(=O)O)NC(=O)[C@H](CC(C)C)NC(=O)[C@](C)(CC(C)C)NC(=O)[C@@H](NC(=O)C(C)(C)NC(=O)[C@H](Cc1ccc(O)cc1)NC(=O)[C@H](CC(=O)O)NC(=O)[C@H](CO)NC(=O)[C@@H](NC(=O)[C@](C)(Cc1ccccc1F)NC(=O)[C@@H](NC(=O)CNC(=O)[C@H](CCC(=O)O)NC(=O)C(C)(C)NC(=O)[C@@H](N)Cc1ccc(O)cc1)[C@@H](C)O)[C@@H](C)O)[C@@H](C)CC)[C@@H](C)CC)C(=O)N[C@@H](CCC(=O)O)C(=O)NCC(=O)NCC(=O)N1CCC[C@H]1C(=O)N[C@@H](CO)C(=O)N[C@@H](CO)C(=O)NCC(=O)N[C@@H](C)C(=O)N1CCC[C@H]1C(=O)N1CCC[C@H]1C(=O)N1CCC[C@H]1C(=O)N[C@@H](CO)C(N)=O [Example 385] | 83.5% | 95.2% | 0.0154 nM | > 9950 nM | > 9950 nM | 100% | 0.189 nM | 112% | – | – |
| CC[C@H](C)[C@H](NC(=O)[C@H](CC(C)C)NC(=O)[C@](C)(Cc1ccc(O)cc1)NC(=O)[C@@H](CCC(=O)O)NC(=O)[C@@H](NC(=O)[C@H](Cc1ccccc1)NC(=O)[C@H](CCCCNC(=O)COCCOCCNC(=O)COCCOCCNC(=O)CCCCCCCCCCCCC(=O)O)NC(=O)C(C)(C)NC(=O)[C@H](CCC(N)=O)NC(=O)[C@H](C)NC(=O)[C@H](CCCCNC(=O)COCCOCCNC(=O)COCCOCCNC(=O)CCCCCCCCCCCCC(=O)O)NC(=O)[C@H](CCCN)NC(=O)[C@H](CC(=O)O)NC(=O)[C@H](CC(C)C)NC(=O)[C@](C)(CC(C)C)NC(=O)[C@@H](NC(=O)C(C)(C)NC(=O)[C@@H](NC(=O)[C@H](CC(=O)O)NC(=O)[C@H](CO)NC(=O)[C@@H](NC(=O)[C@](C)(Cc1ccccc1F)NC(=O)[C@@H](NC(=O)CNC(=O)[C@H](CCC(=O)O)NC(=O)C(C)(C)NC(=O)[C@@H](N)Cc1ccc(O)cc1)[C@@H](C)O)[C@@H](C)O)C(C)C)[C@@H](C)CC)[C@@H](C)CC)C(=O)N[C@@H](CCC(=O)O)C(=O)NCC(=O)NCC(=O)N1CCC[C@H]1C(=O)N[C@@H](CO)C(=O)N[C@@H](CO)C(=O)NCC(=O)N[C@@H](C)C(=O)N1CCC[C@H]1C(=O)N1CCC[C@H]1C(=O)N1CCC[C@H]1C(=O)N[C@@H](CO)C(N)=O [Example 386] | 81.3% | 95.7% | 0.0174 nM | > 9950 nM | > 9950 nM | 98.9% | 0.194 nM | 96.8% | 2.08 nM | – |
| CC[C@H](C)[C@H](NC(=O)[C@H](CC(C)C)NC(=O)[C@](C)(Cc1ccc(O)cc1)NC(=O)[C@@H](CCC(=O)O)NC(=O)[C@@H](NC(=O)[C@H](Cc1ccccc1)NC(=O)[C@H](CCC(=O)O)NC(=O)C(C)(C)NC(=O)[C@H](CCC(N)=O)NC(=O)[C@H](C)NC(=O)[C@H](CCCCNC(=O)COCCOCCNC(=O)COCCOCCNC(=O)CCCCCCCCCCCCC(=O)O)NC(=O)[C@H](CCCN)NC(=O)[C@H](CC(=O)O)NC(=O)[C@H](CC(C)C)NC(=O)[C@](C)(CC(C)C)NC(=O)[C@@H](NC(=O)C(C)(C)NC(=O)[C@H](Cc1ccncc1)NC(=O)[C@H](CC(=O)O)NC(=O)[C@H](CO)NC(=O)[C@@H](NC(=O)[C@](C)(Cc1ccccc1F)NC(=O)[C@@H](NC(=O)CNC(=O)[C@H](CCC(=O)O)NC(=O)C(C)(C)NC(=O)[C@@H](N)Cc1ccc(O)cc1)[C@@H](C)O)[C@@H](C)O)[C@@H](C)CC)[C@@H](C)CC)C(=O)N[C@@H](CCCCNC(=O)COCCOCCNC(=O)COCCOCCNC(=O)CCCCCCCCCCCCC(=O)O)C(=O)NCC(=O)NCC(=O)N1CCC[C@H]1C(=O)N[C@@H](CO)C(=O)N[C@@H](CO)C(=O)NCC(=O)N[C@@H](C)C(=O)N1CCC[C@H]1C(=O)N1CCC[C@H]1C(=O)N1CCC[C@H]1C(=O)N[C@@H](CO)C(N)=O [Example 387] | 93% | – | 0.0137 nM | > 9950 nM | > 9950 nM | – | 0.32 nM | – | – | – |
| CC[C@H](C)[C@H](NC(=O)[C@H](CC(C)C)NC(=O)[C@](C)(Cc1ccc(O)cc1)NC(=O)[C@@H](CCC(=O)O)NC(=O)[C@@H](NC(=O)[C@H](Cc1ccccc1)NC(=O)[C@H](CCC(=O)O)NC(=O)C(C)(C)NC(=O)[C@H](CCC(N)=O)NC(=O)[C@H](C)NC(=O)[C@H](CCCCNC(=O)COCCOCCNC(=O)COCCOCCNC(=O)CCCCCCCCCCCCC(=O)O)NC(=O)[C@H](CCCN)NC(=O)[C@H](CC(=O)O)NC(=O)[C@H](CC(C)C)NC(=O)[C@](C)(CC(C)C)NC(=O)[C@@H](NC(=O)C(C)(C)NC(=O)[C@H](Cc1ccc(O)cc1)NC(=O)[C@H](CC(=O)O)NC(=O)[C@H](CO)NC(=O)[C@@H](NC(=O)[C@](C)(Cc1ccccc1F)NC(=O)[C@@H](NC(=O)CNC(=O)[C@H](CCC(=O)O)NC(=O)C(C)(C)NC(=O)[C@@H](N)Cc1ccc(O)cc1)[C@@H](C)O)[C@@H](C)O)[C@@H](C)CC)[C@@H](C)CC)C(=O)N[C@@H](CCCCNC(=O)COCCOCCNC(=O)COCCOCCNC(=O)CCCCCCCCCCCCC(=O)O)C(=O)NCC(=O)NCC(=O)N1CCC[C@H]1C(=O)N[C@@H](CO)C(=O)N[C@@H](CO)C(=O)NCC(=O)N[C@@H](C)C(=O)N1CCC[C@H]1C(=O)N1CCC[C@H]1C(=O)N1CCC[C@H]1C(=O)N[C@@H](CO)C(N)=O [Example 388] | 82.1% | 98.3% | 0.0103 nM | > 9950 nM | > 9950 nM | 95.4% | 0.292 nM | – | – | 6.31 nM |
